Active and inactive are the calls of the source. The calls are words filed in the database; no cut-off is given here.
How the values were obtained:
[1] = test system: Mycobacterium tuberculosis; experiment: Bacteriostatic activity against replicating Mycobacterium tuberculosis H37Rv by agar dilution method; type: functional
[2] = test system: Mycobacterium tuberculosis; experiment: Bactericidal activity against replicating Mycobacterium tuberculosis H37Rv after 21 days by agar dilution method; type: functional
[3] = Selectivity index, ratio of IC50 for human HepG2 cells to MIC90 for Mycobacterium tuberculosis H37Rv; type: toxicity; conditions: read-out: Selectivity Index

| Compound | Activity [1] | Activity [2] | selectivity ratio [3] |
| --- | --- | --- | --- |
| COc1ccc(CCNc2cc(-c3ccccn3)nc3ncnn23)cc1 | Active | inactive |  |
| FC(F)(F)Oc1ccc(CCNc2cc(-c3ccccc3)nc3ncnn23)cc1 | Active | inactive |  |
| COc1ccc(CC(=O)Nc2cc(-c3ccccc3)nc3ncnn23)cc1 | Active | inactive |  |
| COc1ccc(CCNc2cc(-c3ccc(F)cc3)nc3ncnn23)cc1 |  |  | > 21 |

— ChEMBL document CHEMBL4052656, “The synthesis and evaluation of triazolopyrimidines as anti-tubercular agents” (Bioorg Med Chem, 2017)
